Results from US5962451A, “Benzodiazepin derivatives useful as CCK-receptor antagonists” (Ferring BV, priority 1992, dated 1999).

Experiments:
CCK-B receptor = molecular target: T1, CCK-B receptor (Rattus norvegicus, UniProt P30553); assay: Measurement of Binding Affinity for CCK-B Receptors ([125I]BH-CCK-8 displacement, rat brain membranes); conditions: SD rat brain membranes, [125I]BH-CCK-8, 25° C., 120 min, pH 6.5
T1 construct: the whole brain was immediately excised from each of the rats and homogenized; from tissue; host or cells: SD rat whole brain, membrane preparation
T1 sequence (P30553 whole entry): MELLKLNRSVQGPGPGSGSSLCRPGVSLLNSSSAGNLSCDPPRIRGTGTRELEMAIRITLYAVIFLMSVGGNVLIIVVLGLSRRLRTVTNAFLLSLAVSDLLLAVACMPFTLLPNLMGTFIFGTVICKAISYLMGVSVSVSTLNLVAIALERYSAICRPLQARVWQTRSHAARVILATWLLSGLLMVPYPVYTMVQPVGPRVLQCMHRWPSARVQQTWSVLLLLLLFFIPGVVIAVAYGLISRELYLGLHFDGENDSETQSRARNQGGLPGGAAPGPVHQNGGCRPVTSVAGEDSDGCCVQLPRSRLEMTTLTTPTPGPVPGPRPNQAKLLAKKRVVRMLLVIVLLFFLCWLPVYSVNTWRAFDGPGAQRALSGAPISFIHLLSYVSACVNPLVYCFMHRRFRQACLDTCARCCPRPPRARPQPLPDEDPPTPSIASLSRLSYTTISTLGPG
Description: Measurement of Binding Affinity for CCK-B Receptors
About 100 SD rats were decapitated without anaesthesia, the whole brain was immediately excised from each of the rats and homogenized in 10-fold volume of 0.32 M aqueous solution of sucrose by the use of a Teflon-coatedhomogenizer, the homogenate thus obtained was centrifuged for ten minutes at 900 g by the use of a cooled centrifuge, and the supernatant was further centrifuged for 15 minutes at 11500 g. The precipitate thus obtained was dispersed in 50 mM Tris-HCl buffer (pH 7.4) containing 0.08% Triton X-100, this suspension was allowed to stand for 30 minutes and again centrifuged for 15 minutes at 11500 g, the precipitate thus obtained was washed twice with 5 mM Tris-HCl buffer and twice with 50 mM Tris-HCl buffer in that order with centrifugal separation, the washed precipitate was suspended in 50 mM Tris-HCl buffer, and the suspension thus obtained was stored at -80° C. until the membrane preparation was required.
The membrane preparations were warmed to room temperature, diluted with 10 mM HEPES buffer (containing 130 mM NaCl, 5 mM MgCl2, 1 mM EGTA and 0.25 mg/ml bacitracin; pH 6.5) and incubated at 25° C. for 120 minutes in the presence of [^125 I]BH-CCK-8 and the test compound, then separated by suction filtration. Non-specific binding was determined in the presence of 1 μM CCK-8. The amount of labelled ligand bound to the receptor was measured by the use of a γ-counter; IC50 values were determined, being that concentration of test compound required to inhibit specific binding by 50%.
(§1) A high affinity for the CCK-A receptor in a gastrin/CCK-B antagonist is thought to be undesirable as it may lead to side-effects such as cholestasis and gall stone formation during therapy. Therefore it is preferable for the therapeutic agent to be selective for the CCK-B receptor. This selectivity is expressed by the ratio IC50. (CCK-A)/IC50 (CCK-B); the higher the value of this ratio the better is the selectivity.
The table below summarises CCK-B and CCK-A binding data for examples of preferred compounds, as well as the A/B ratio. Many compounds display a marked increase in CCK-B receptor binding affinity when compared to the compound of Example 281 of U.S. Pat. No. 4,820,834 (also known as L-365,260). Several compounds also show much greater selectivity for the CCK-B receptor over the CCK-A receptor than that reported for the compound of Example 281 of U.S. Pat. No.

[1] = system: Pentagastrin-stimulated gastric acid secretion; assay: Measurement of Inhibition of Pentagastrin-stimulated Gastric Acid Secretion in dog (Heidenhain pouch); format: in vivo, male beagle dog; conditions: beagle dog, oral, pentagastrin 8 μg/kg/hr, mean for 3-5 animals
Description: Measurement of Inhibition of Pentagastrin-stimulated Gastric Acid Secretion in doc
Assays were performed using male beagle dogs (7-12 kg) two months after surgical preparation of Heidenhain pouches following the conventional procedure. Each dog was used only once per week.
The animals were deprived of food with free access to water for 18 hr prior to the experiment. The gastric juice was collected from the gastric cannula by gravity drainage every 15 min, and acid output was determined by automatic titration with 0.05 N NaOH to pH 7.0 (Comtite-7, Hiranuma, Tokyo, Japan). Drugs were administered orally 3 hr after the start of the pentagastrin (8 μg/kg/hr) infusion. The effect of each drug was calculated as the percentage inhibition of stimulated acid output. […] Each result is a mean for 3-5 animals.

CCK-A receptor = molecular target: T2, CCK-A receptor (Rattus norvegicus, UniProt P30551); assay: Measurement of Binding Affinity for CCK-A Receptors ([3H]L-364,718 displacement, rat pancreas membranes); conditions: SD rat pancreas membranes, [3H]L-364,718, 37° C., 30 min
T2 construct: The pancreas of an SD rat was homogenized; from tissue; host or cells: SD rat pancreas, membrane preparation
T2 sequence (P30551 1-444): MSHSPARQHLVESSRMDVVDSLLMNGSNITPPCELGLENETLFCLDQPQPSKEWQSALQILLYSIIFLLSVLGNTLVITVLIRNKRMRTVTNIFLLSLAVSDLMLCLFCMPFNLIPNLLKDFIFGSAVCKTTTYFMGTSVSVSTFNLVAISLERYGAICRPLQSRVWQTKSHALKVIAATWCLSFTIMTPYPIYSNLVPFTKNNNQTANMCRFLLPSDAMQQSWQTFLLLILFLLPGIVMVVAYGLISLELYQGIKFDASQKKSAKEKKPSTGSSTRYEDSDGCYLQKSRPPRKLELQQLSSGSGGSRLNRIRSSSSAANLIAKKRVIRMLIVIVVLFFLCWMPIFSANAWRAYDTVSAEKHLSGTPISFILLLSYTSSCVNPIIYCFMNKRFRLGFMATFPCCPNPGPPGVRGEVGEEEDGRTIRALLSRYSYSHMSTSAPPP
Description: Measurement of Binding Affinity for CCK-A Receptors
The pancreas of an SD rat was homogenized in a 20-fold volume of 50 mM Tris-HCl buffer (pH 7.7) by the use of a Polytrone-type homogenizer, the homogenate was twice centrifuged for 10 minutes at 50000 g by the use of an ultra-centrifuge, the precipitate thus obtained was suspended in a 40-fold volume of 50 mM Tris-HCl buffer (containing 0.2% BSA, 5 mM MgCl2, 0.1 mg/ml bacitracin and 5 mM DTT; pH 7.7), and the suspension was stored at -80° C. until the membrane preparations were required.
The membrane preparations were then warmed to room temperature, diluted 1:10 with the buffer and incubated at 37° C. for 30 minutes in the presence of [^3 H]L-364,718 and the test compound then separated by suction filtration. Non-specific binding was determined in the presence of 1 μM L-364,718. The amount of labelled ligand bound to the receptor was measured by the use of a liquid scintillation counter; IC50 values were determined, being that concentration of test compound required to inhibit specific binding by 50%.
as §1, with “(CCK-A)/IC50 (CCK-B); the higher the value of this ratio the better is the selectivity.” left out

SMILES	IC50 (CCK-B receptor) [nM]	maximum inhibition of stimulated acid output ([1]; 3 μmol/kg) [%]	further results
Cc1cccc(NC(=O)NC2N=C(c3ccccc3)c3ccccc3N(CC(=O)CC3CCCCC3)C2=O)c1 (racemic) [Example 32, N-((3RS)-1-Cyclohexylmethylcarbonylmethyl-2,3-dihydro-2-oxo-5-phenyl-1H-1,4-benzodiazepin-3-yl)-N'-(3-methylphenyl) urea]	0.28		
Cc1cccc(NC(=O)NC2N=C(c3ccccn3)c3ccccc3N(CC(=O)C(C)(C)C)C2=O)c1 (racemic) [Example 27, N-((3RS)-1-tert-Butylcarbonylmethyl-2,3-dihydro-2-oxo-5-(2-pyridyl)-1H-1,4-benzodiazepin-3-yl)-N'-(3-methylphenyl) urea]		66	
Cc1cccc(NC(=O)NC2N=C(c3ccccn3)c3ccccc3N(CC(=O)C3CCCC3)C2=O)c1 (racemic) [Example 14, N-((3RS)-1-Cyclopentylcarbonylmethyl-2,3-dihydro-2-oxo-5-(2-pyridyl)-1H-1,4-benzodiazepin-3-yl)-N'-(3-methylphenyl)urea]	0.12		IC50 (CCK-A receptor): 2600 nM
Cc1cccc(NC(=O)N[C@@H]2N=C(c3ccccc3)c3ccccc3N(C)C2=O)c1 [reference compound]			maximum inhibition of stimulated acid output ([1]; 100 μmol/kg): 0%
Cc1cccc(NC(=O)NC2N=C(c3ccccc3)c3ccccc3N(CC(=O)C3(C)CCCCC3)C2=O)c1 (racemic) [Example 34, N-((3RS)-1-((1-Methylcyclohexyl)carbonylmethyl)-2,3-dihydro-2-oxo-5-phenyl-1H-1,4-benzodiazepin-3-yl)-N'-(3-methylphenyl) urea]	0.38		
Cc1cccc(NC(=O)N[C@@H]2N=C(c3ccccc3)c3ccccc3N(CC(=O)C(C)(C)C)C2=O)c1 [Example 26, N-((3R)-1-tert-Butylcarbonylmethyl-2,3-dihydro-2-oxo-5-phenyl-1H-1,4-benzodiazepin-3-yl)-N'-(3-methylphenyl) urea]		53	
Cc1cccc(NC(=O)NC2N=C(c3ccccc3)c3ccccc3N(CC(=O)C3CCCC3)C2=O)c1 (racemic) [Example 4, N-((3RS)-1-Cyclopentylcarbonylmethyl-2,3-dihydro-2-oxo-5-phenyl-1H-1,4-benzodiazepin-3-yl)-N'-(3-methylphenyl) urea]	0.23		
CN(C)c1cccc(NC(=O)NC2N=C(c3ccccn3)c3ccccc3N(CC(=O)C(C)(C)C)C2=O)c1 (racemic) [Example 38, N-((3RS)-1-tert-Butylcarbonylmethyl-2,3-dihydro-2-oxo-5-(2-pyridyl)-1H-1,4-benzodiazepin-3-yl)-N'-(3-dimethylaminophenyl) urea]		100	
CN(C)c1cccc(NC(=O)N[C@@H]2N=C(c3ccccc3)c3ccccc3N(CC(=O)C(C)(C)C)C2=O)c1 [Example 64, N-((3R)-1-tert-Butylcarbonylmethyl-2,3-dihydro-2-oxo-5-phenyl-1H-1,4-benzodiazepin-3-yl)-N'-(3-dimethylaminophenyl) urea]		100	
